# Test results published in patent US12103969B2, “Anti-Siglec antibody, pharmaceutical composition comprising the same, and uses thereof” (Academia Sinica, priority 2018, dated 2024).
# Where two headings read alike, the source gives them in different places.
# Assays:
# [1] = molecular target: T1, hHBV and Siglec-3 interaction (Homo sapiens, UniProt P20138); assay: Competition assay of hHBV and Siglec-3 interaction by sialoglycan; type: binding
# T1 construct: human Siglec-3/-7 extracellular domain (ECD); made in house; host or cells: FreeStyle 293 Expression System (Invitrogen); HBsAg/HBV purified from CHB patients' blood
# Protocol: (§1) Sialidase S and sialidase C were used to remove sialoglycan from HBV or sialoglycans, respectively. Sialidase S releases only α(2-3)-linked Neu5Ac, while Sialidase C release both α(2-3) and α(2-6)-linked Neu5Ac. The sialidase-treated substrates were used for HBV-Siglec-3 binding assay and competition assay.
# Siglec ECD.Fc fusion proteins (5 μg) were coated on microtitre plates, followed by addition of HBsAg (100 ng) in the presence various concentrations of following glycans: Neu5Ac(α2-6)-Gal-GlcNAc, Neu5Ac(α2-3)-Gal-GlcNAc, and Gal-GlcNAc at 4° C. for 12 hours with Protein free blocking buffer. The sialidase-treated and un-treated sialyglycans were used for competition assay.
# Siglec-3.Fc = molecular target: T2, Siglec-3.Fc (Homo sapiens, UniProt P20138); assay: Bio-layer interferometry: Siglec-3.Fc and Neu5Ac(α2-6)GalGlcNAc glycans; type: binding
# T2 construct: human Siglec-3/-7 extracellular domain (ECD); made in house; host or cells: FreeStyle 293 Expression System (Invitrogen)
# Protocol: (§2) The interaction between human Siglec.Fc fusion protein and HBV was determined by the Bio-layer interferometry. In brief, the biosensor was immobilized with the Siglec.Fc fusion protein, and the binding between the Siglec.Fc and HBV was performed with running buffer (10 mM Tris HCl, 150 mM NaCl, 2 mM CaCl2, 2 mM MgCl2, pH 7.4) at room temperature. The valence between HBV and human Siglec-3 was determined, which correlates the strength of multivalent association with that of monovalent association as shown in the following: • KA, surf=F (S×10^−2)^n−1×(KA, mono)^n, where KA, surf is thereciprocal of KD (HBV and Siglec-3), KA, mono is the reciprocal of KD (Biantennary a2-6 linked sialylglycopeptide and Siglec-3); n is the number of valency number; F is the statistic factor in the system and S is equal to 40(Å), which is estimated according to crystal structure of Siglec-3 published on RCSB protein data bank (Number: 5J0B). Three individual BLI results were used to calculate out the n (number of valency). Generation and Characterization of Anti-Siglec mAbs and Selection of Antagonistic Antibody
# hHBV [2] = assay: Bio-layer interferometry: immobilized Fc-lectin and hHBV; type: binding, hepatitis B virus
# From the text: (§3) HBV was purified from blood samples of chronic hepatitis B (CHB) patients and HBV-transgenic mice, respectively. The protocol for HBV was purified by conventional method. HBV viral load was determinate by RT-PCR according to a standard HBV plasmid. HBsAg level was quantified by the HBsAg ELISA kit.
# as §1, §2
# hHBV [3] = assay: Immunoprecipitation of hHBV by Siglec ECD.Fc fusion proteins; type: binding, hepatitis B virus; details: Western blot with anti-HBs
# Protocol: HBV ([…]) was incubated with recombinant Siglec-3/-7/-9 ECD.Fc fusion proteins, respectively, for 16 hours at 4° C., followed by incubation with Sepharose-conjugated Protein A beads for immunoprecipitation. The samples were fractionated on 12% SDS-PAGE before blotting to PVDF membrane and incubated in blocking buffer (0.05% Tween 20 in TBS containing 5% BSA) at 4° C. overnight. Blots were incubated with […] polyclonal goat-anti-HBs Ab for 1 hour at room temperature, followed by incubation with Streptavidin-HRP (1:10000 dilution) for another 1 hour at room temperature, and were visualized by ECL.
# mHBV = assay: Bio-layer interferometry: immobilized Fc-lectin and mHBV; type: binding, hepatitis B virus; details: BLI, same condition as hHBV
# Protocol: as §3, §2
# [4] = untreated glycan, various concentrations
# T2 sequence (P20138 18-259 limits assumed): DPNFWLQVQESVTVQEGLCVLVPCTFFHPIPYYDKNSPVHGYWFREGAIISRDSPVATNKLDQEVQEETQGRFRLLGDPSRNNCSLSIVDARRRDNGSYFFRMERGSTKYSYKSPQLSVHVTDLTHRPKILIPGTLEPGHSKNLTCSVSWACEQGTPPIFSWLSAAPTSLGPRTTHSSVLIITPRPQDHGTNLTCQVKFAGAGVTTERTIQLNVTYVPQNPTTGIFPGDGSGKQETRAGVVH
# T1 sequence (P20138 18-259 limits assumed): as above
substance,measurement,setting,value
Neu5Ac(α2-3)GalGlcNAc,inhibition of Siglec-3-HBV interaction,[1]; [4],did not inhibit Siglec-3-HBV interaction
GalGlcNAc,inhibition of Siglec-3-HBV interaction,[1]; [4],did not inhibit Siglec-3-HBV interaction
Neu5Ac(α2-6)GalGlcNAc,inhibition of Siglec-3-HBV interaction,[1]; Sialidase C-treated glycan,lost its inhibitory effect
same,inhibition of Siglec-3-HBV interaction,[1]; [4],inhibited Siglec-3-HBV interaction in a dose-dependent manner
same,Ka,"Siglec-3.Fc; immobilized Siglec-3, cell wraps: value is the mantissa, factor × 10^0 printed in the lines below",5.44 M⁻¹ s⁻¹
same,Kd,"Siglec-3.Fc; immobilized Siglec-3, cell wraps: value is the mantissa, factor × 10^−3 printed in the lines below",6.02 s⁻¹
same,Kd,"Siglec-3.Fc; recombinant Siglec-3.Fc (dimeric), full value, unit from Table 1, read-out: equilibrium dissociation constant (KD)",1590 µM
Siglec-3: recombinant human Siglec-3 extracellular domain (ECD).Fc fusion protein,Ka,"hHBV [2]; hHBV Sialidase S treated, cell wraps: value is the mantissa, factor × 10^5 printed in the lines below",7.11 M⁻¹ s⁻¹
same,Kd,"hHBV [2]; hHBV Sialidase S treated, cell wraps: value is the mantissa, factor × 10^−4 printed in the lines below",2.73 s⁻¹
same,Ka,"hHBV [2]; hHBV Untreat, cell wraps: value is the mantissa, factor × 10^6 printed in the lines below",1.18 M⁻¹ s⁻¹
same,Kd,"hHBV [2]; hHBV Untreat, cell wraps: value is the mantissa, factor × 10^−4 printed in the lines below",6.97 s⁻¹
same,Kd,"hHBV [2]; hHBV virions, full value, unit from Table 2, read-out: KD",0.000115 µM
same,Ka,"hHBV [2]; hHBV, cell wraps: value is the mantissa, factor × 10^6 printed in the line below",3.11 M⁻¹ s⁻¹
same,Kd,"hHBV [2]; hHBV, cell wraps: value is the mantissa, factor × 10^−4 printed in the line below",3.58 s⁻¹
same,binding between Siglec-3 and hHBV,hHBV [2]; α2-6 linked Neu5Ac removed from hHBV by sialidase C,abolished the binding
same,pull down of hHBV HBsAg (immunoprecipitation),hHBV [3],mainly pulled down glycosylated small HBsAg(h)
same,binding to mHBV virions,mHBV,did not bind
Siglec-9: recombinant Siglec-9 ECD.Fc fusion protein,binding to hHBV,"hHBV [2]; hHBV, BLI, same condition as Siglec-3",did not bind
same,pull down of hHBV HBsAg (immunoprecipitation),hHBV [3],cannot pull down
